Where “and” joins values, the source holds several entries; their conditions need not be identical. Equal entries are not always repeated. One block for each molecule: values may come before it.
Molecular target: α-glucosidase enzyme from Saccharomyces cerevisiae type 1
Assay: α-Glucosidase inhibitory assay (p-NPG substrate, absorbance at 405 nm)
Type: biochemical
Conditions: for IC50: S. cerevisiae α-glucosidase type 1, p-NPG 2 mM, pH 6.5, 37°C, 30 min, triplicate; for times more potent than acarbose: ratio of IC50 values versus acarbose; for inhibition of α-glucosidase (not screened for IC50): screening, concentration not given
Description: For phosphate-buffered saline (PBS), NaH₂PO₄ (1.4 g), NaCl (8 g), KCl (0.2 g), and KH₂PO4 (0.2 g) were dissolved in deionized H2O (1 L) at 20°C. Using NaOH (1M) and HCl (1M), the pH of the solution was adjusted to 6.5 at 20°C. p-Nitrophenyl-α-D-glucopyranoside (2 mM) (p-NPG-substrate) was prepared by dissolving p-NPG (6 mg) in buffer solution (10 mL). α-Glucosidase enzyme Type 1, lyophilized powder (Sigma-Aldrich) from Saccharomyces cerevisiae (a mixture of MAL12 and MAL32) was employed. The enzyme solution was prepared by dissolving 1 mg of in 1000 μL of cold PBS (pH 6.5). Subsequently, 50 μL of α-glucosidase enzyme solution was mixed with cold buffered saline (12 mL) to a concentration of 0.125 unit/mL. For sample screening, a solution of 200 μg/mL concentration was prepared in 100% DMSO, and then subjected to two-fold serial dilution in 5% DMSO in a 96-well microplate to obtain concentrations of 100, 50, 25, 12.5, 6.25, 3.13, and 1.56 μg/mL. The samples were screened using Epoch 2 Microplate Spectrophotometer from BioTek. To each well of the 96-well microplate, 10 μL of DMSO (5%) was added. The stock solution (10 μL) was added to the first well and mixed. Then, 10 μL of sample was withdrawn from the first well and added to the second well, and the process was repeated for two-fold serial dilution. Subsequently, 20 μL of α-glucosidase enzyme, 40 μL of PBS (pH 6.5), and 20 μL of deionized H2O were added to each well of the 96-well microtiter plate with constant stirring. The plate was pre-incubated at 37°C for 10 min, and then 10 μL of p-NPG (2 mM) solution was added to the mixture; its absorbance at 0 min was measured at a wavelength of 405 nm. The reaction mixture was incubated at 37°C for 30 min, and subsequently, its absorbance was measured. […] The experiment was performed in triplicate. According to a previously described methodology, the α-glucosidase inhibitory activity was determined and the inhibition (%) of this activity was calculated using the following equation: %inhibition=(A30min−A0min)control−(A30min−A0min)exp/(A30min−A0min)control×100

% inhibition of α-glucosidase (at 0.34 μM): 19.15% inhibition at 0.34 μM
inhibition of α-glucosidase (not screened for IC50): less than 50%
SMILES: CCn1c(=O)c2ccccc2n2nc(S(C)(=O)=O)nc12 [Compound 7]

IC50: 28.5 ± 1.22 µM
times more potent than acarbose: ~5
SMILES: C=CCn1c(=O)c2ccccc2n2nc(S(C)(=O)=O)nc12 [Compound 8]

% inhibition of α-glucosidase (at 0.24 μM): 16.89% inhibition at 0.24 μM
SMILES: O=c1c2ccccc2n2nc(Oc3ccccc3)nc2n1Cc1ccc([N+](=O)[O-])cc1 [Compound 9]

% inhibition of α-glucosidase (at 0.25 μM): 14.83% inhibition at 0.25 μM
SMILES: Cc1ccc2c(=O)n(Cc3ccc(C#N)cc3)c3nc(Oc4ccccc4)nn3c2c1 [Compound 10]

% inhibition of α-glucosidase (at 0.23 μM): 19.52% inhibition at 0.23 μM
SMILES: Cc1ccc2c(=O)n(Cc3ccc([N+](=O)[O-])cc3)c3nc(Oc4ccccc4)nn3c2c1 [Compound 11]

IC50: 97.53 ± 0.94 µM
SMILES: O=c1c2ccccc2n2nc(Oc3ccccc3)nc2n1CCN1CCCCC1 [Compound 12]

% inhibition of α-glucosidase (at 0.21 μM): 27.93% inhibition at 0.21 μM
inhibition of α-glucosidase (not screened for IC50): less than 50%
SMILES: Cc1ccc2c(=O)n(Cc3cccc(C#N)c3)c3nc(Oc4ccccc4)nn3c2c1 [Compound 13]

IC50: 12.7 ± 1.87 µM
times more potent than acarbose: approximately 12
SMILES: O=C1c2ccccc2C(=O)N1CCn1c(=O)c2ccccc2n2nc(Oc3ccccc3)nc12 [Compound 14]

Continued, molecule first:

SMILES: CSc1nc2[nH]c(=O)c3ccccc3n2n1 [Compound 1]
IC50: 155.9 ± 1.36 µM

SMILES: CS(=O)(=O)c1nc2[nH]c(=O)c3ccccc3n2n1 [Compound 2]
IC50: 180 µM

SMILES: O=c1[nH]c2nc(Oc3ccccc3)nn2c2ccccc12 [Compound 3]
IC50: 83.9 ± 5.12 µM

SMILES: CCn1c(=O)c2ccccc2n2nc(SC)nc12 [Compound 4]
IC50: 45.6 ± 4.28 µM
times more potent than acarbose: ~3

SMILES: C=CCn1c(=O)c2ccccc2n2nc(SC)nc12 [Compound 5]
IC50: 45.6 µM and 72.3 µM

SMILES: CSc1nc2n(Cc3ccc([N+](=O)[O-])cc3)c(=O)c3ccc(C)cc3n2n1 [Compound 6]
% inhibition of α-glucosidase (at 0.28 μM): 16.24% inhibition at 0.28 μM
inhibition of α-glucosidase (not screened for IC50): less than 50%

Reference: publication PMC6693780, “Triazoloquinazolines as a new class of potent α-glucosidase inhibitors: in vitro evaluation and docking study” (PLoS ONE, 2019)
